Assay results: a melting point compilation (Tetko et al.; mined from patent text by program, amines drawn as free bases though some values may be those of a salt)

| SMILES | melting point |
| --- | --- |
| O=C1CC2CCCC3(C2)c2cccn2CCN13 (configuration not stated) | 130 to 132 °C |
| CNCC(O)COc1cc(-c2ccc(OC)cc2)nc2cc(C)ccc12 (racemic) | 140 to 142 °C |
| CN(C)c1ccc(-c2cc(=O)c(C(=O)O)cn2-c2ccc(F)c(N)c2)cc1 | 198 to 201 °C |
| COC(=O)/C=C(\Oc1ccc(F)cc1)C(=O)OC | 60 to 61 °C |
| Cc1cc2cc(C#N)c(Cl)nc2s1 | 171 to 173 °C |
| NNc1nnc(Cl)cc1N | 190 °C |
| CC(C)c1cccc(C(C)C)c1NC(=O)NCC1CCCc2ccccc21 (configuration not stated) | 189 to 190 °C |
| O=C1N(c2c(Cl)cccc2Cl)Cc2cnc(Nc3cccc4ccccc34)nc2N1c1ccccc1 | 213 to 214 °C |
| O=C(On1nnc2ccccc21)c1ccc2c(c1)OC(c1ccccc1)(c1ccccc1)O2 | 158 to 160 °C |
| CC1(C)CC(NC=O)CC(C)(C)N1 | 153 °C |
| COc1cc(Cn2[nH]c(N)cc2=O)ccc1Cl | 148 °C |
| O=C(Nc1ccc(SC(F)(F)F)cc1)c1ccc2c(c1O)CCCC2 | 167 °C |
| O=C(O)COc1ccc(C(=O)c2cccc(Cl)c2)c(Cl)c1Cl | 155 to 156 °C |
| CCCc1nnc(CCc2cc(OCc3ccc(OCc4nc(-c5ccccc5)oc4C)c(OC)c3)nn2-c2ccccc2)o1 | 85 to 86 °C |
| COc1cc(NNc2nccc(Nc3ccc4nc(C)[nH]c4c3)n2)cc(OC)c1OC | 179 °C |
| COc1ccc(C(=O)c2sccc2OC)cc1 | 98 to 99 °C |
| Cc1c(O)c(C)c(Cc2cc(C(C)(C)C)c(O)c(C(C)(C)C)c2)c(C)c1Cc1cc(C(C)(C)C)c(O)c(C(C)(C)C)c1 | 204 °C |
| O=C(O)Cn1c(-c2ccc(C(F)(F)F)cc2)nc2cccnc21 | 240 to 241 °C |
| CCN(CC)C(=O)NC1CC2c3cccc4[nH]c(CC#CO)c(c34)CC2N(C)C1 (configuration not stated) | 151 to 154 °C |
| O=C(CN1CCN(c2ccc(NC(=O)c3ccccc3-c3ccc(C(F)(F)F)cc3)cc2)CC1)NCc1cccc(-c2ccccc2)c1 | 165 to 167 °C |
| Nc1cc(NC(=O)c2ccccc2)ccn1 | 187 to 188 °C |
| CC(C)Cn1c(N(C)C(=O)OC(C)(C)C)c(OCCCC(F)(F)F)c2cc(OCc3ccccc3)ccc2c1=O | 117 to 118 °C |
| CCOP(=O)(OCC)/C(O)=C/c1cn(-c2ccccc2)nc1OCc1ccc(OCc2nc(-c3ccco3)oc2C)c(OC)c1 | 147 to 149 °C |

| SMILES | melting point |
| --- | --- |
| CC(C)Cn1c(CNC(=O)OC(C)(C)C)c(-c2ccccc2F)c2cc(OCc3ccccc3)ccc2c1=O | 138 to 139 °C |
| OCC#CCCCCCCC#Cc1ccc(O)c(O)c1 | 81 to 83 °C |
| Sc1cc(Cl)nc2ncnn12 | > 300 °C |
| C[C@]12CCC(=O)N[C@@H]1CCc1cc(Sc3cccc4ccccc34)ccc12 | 199 to 201 °C |
| CN(C)c1ccc(NC(=O)N(CC2CCCC(CN(C(=O)Nc3ccc(N(C)C)cc3)C3CC4CCC3C4)C2)C2CC3CCC2C3)cc1 (configuration not stated) | 110 to 115 °C |
| COc1cnc(CSc2nc3cc(OC(F)(F)C(F)F)ccc3[nH]2)c(C)c1OC | 127 to 128 °C |
| CN(C)Nc1c([N+](=O)[O-])cc(C(F)(F)F)c(Cl)c1[N+](=O)[O-] | 130 to 131 °C |
| CCOC(=O)CCC1CCC2C(C=CC3=CCCc4c3n2c2ccncc42)C1 (configuration not stated) | 112 °C |
| CC(=O)c1c[nH]c2cc(O)ccc12 | 135 to 140 °C |
| CNC(=O)CN1CCc2cc(Nc3ncc(Cl)c(Nc4cc(C(N)=O)ccc4OC)n3)c(OC)cc2CC1 | 225 to 236 °C |
| O=S1(=O)N=C(NC2CC2)Nc2cc(Cl)sc21 | 272 to 273 °C |
| CN1C(=O)C2(COc3cc4c(cc32)OCCO4)c2c(C(=O)Oc3ccccc3)cccc21 (configuration not stated) | 184 to 186 °C |
| COC(=N)c1ccc(C(=O)O)cn1 | 284 to 286 °C |
| CS(=O)(=O)Nc1ccccc1OCCCN1CCC(OC(c2ccccc2)c2ccsc2)CC1 (configuration not stated) | 79.5 to 82 °C |
| Nc1ccc(S(=O)(=O)c2cc(-c3cccc(Cl)c3)nc(N3CCCC3)c2)cc1 | 260 to 261 °C |
| O=C(Nc1cc[nH]n1)c1c(F)cccc1F | 201 to 204 °C |
| CC(C)n1nc(-c2c(-c3ccccc3)nn3ccc(OCCN4C[C@@H](C)O[C@@H](C)C4)cc23)ccc1=O | 158 °C |
| O=C(Nc1ccccc1S(=O)(=O)NCCCn1cccn1)c1cccc(C(F)(F)F)c1 | 108 to 111 °C |
| CCCN(C1=C(O)CC(C2CCCC2)(C2CCCC2)OC1=O)c1cccc(NS(=O)(=O)c2ccccn2)c1 | 105 to 107 °C |
| CN(C)S(=O)(=O)n1c(C(=S)NC(=O)NS(=O)(=O)c2ccccc2Cl)nc2cc(Cl)c(Cl)cc21 | 131 to 132 °C |
| CN1CCN(c2cccc3c2CC(=O)CC3)CC1 | > 85 °C |
| O=C(O)c1c(-c2ccccc2)oc2ccccc2c1=O | 298 to 300 °C |
| CCOC(=O)CN(CC(=O)OCC)C(=O)C(CCC(=O)O)CS(=O)(=O)c1ccc2ccccc2c1 (configuration not stated) | 108 to 111 °C |

| SMILES | melting point |
| --- | --- |
| Cc1oc(-c2ccc(C(F)(F)F)cc2)nc1-c1cccc(-c2ccc(O)cc2)c1 | 133 to 135 °C |
| COc1cc(OC)nc(Oc2ccc3ccccc3c2C(=O)OCC=NOCC=CCl)n1 | 77 to 83 °C |
| O=C(CCCl)N1CCc2ccc([N+](=O)[O-])cc21 | 127 to 128 °C |
| C[C@H](C(=O)O)c1ccc2cc(OCCCCCCc3ccc(OCc4ccccc4)c(OCc4ccccc4)c3)ccc2c1 | 80 to 82 °C |
| CC1(C)CC(OC(=O)CCC(=O)OC2CC(C)(C)NC(C)(C)C2)CC(C)(C)N1 | 118 °C |
| COc1c(Cl)ccc(-c2cc(N)c(Cl)c(C(=O)NOCc3ccc(F)cc3)n2)c1F | 150 to 153 °C |
| CSc1nc(=O)[nH]c(C)c1Cl | 268 °C |
| O=C1C(=O)c2ccccc2C2=C1SCC1(CCN(S(=O)(=O)c3cccc(Cl)c3)CC1)O2 | 255 to 256 °C |
| CCCCOc1cc(C(=O)O)n(Cc2ccc(C(F)(F)F)cc2)n1 | 128 to 129 °C |
| N#Cc1onc(-c2ccccc2)c1-c1ccc(S(N)(=O)=O)cc1 | 218 to 219 °C |
| Cc1cccc(C)c1NCCNCC(O)COc1ccc(F)cc1 (configuration not stated) | 105 to 106 °C |
| CC(C)c1ccc(N(Cc2ccc(N(C)C)cc2)C(=O)C2CCS(=O)(=O)c3ccccc32)cc1 (configuration not stated) | 185 to 187 °C |
| CNCC1Cc2cc(Cl)cc(-c3cccc(OC)c3OC)c2O1 (configuration not stated) | 105 to 107 °C |
| CCCCCCCCCCCCCCCCCCOC(=O)CBr | 37 to 40 °C |
| CC(C)(C)OC(=O)N[C@@H](CCC(=O)Oc1ccc(-c2nn(C3CCCC3)c3c(F)cccc23)cc1)C(=O)OC(C)(C)C | 92 to 93 °C |
| O=c1cc(O)nc2cc(C(c3c(F)ccc(F)c3F)S(=O)(=O)CCC(F)(F)F)c(Cl)cn12 (configuration not stated) | 264 °C |
| CC(=O)OCC(=O)C12OCOC1CC1C3CCC4=CC(=O)C=CC4(C)C3(F)C(O)CC12C (configuration not stated) | 283 to 285 °C |
| COc1ccc(-c2ccc3c(C(=O)c4ccn5c4CSC5c4cccnc4)c[nH]c3c2)cc1 (configuration not stated) | 246 to 248 °C |
| CCN(CC)C(=O)C1CCC2C3CNC4=CC(=O)C=CC4(C)C3CCC12C (configuration not stated) | > 250 °C |
| C(=Cc1c[nH]cn1)CC(c1ccccc1)c1ccccc1 | > 240 °C |
| COc1cc2c(cc1OC)CN(CCCc1cccc(NC(=O)c3cccc4c(=O)c5cccc(OC)c5[nH]c34)c1)CC2 | 138 to 140 °C |
